In experiment [1] the test system is Rat Liver ER Neutral α-Glucosidase. Description: Endoplasmic reticulum α-glucosidase activity assay. Format: biochemical. From the text: Betulinic acid inhibits yeast α-glucosidase activity and interferes with N-linked glycan modifications to cell-surface intercellular adhesion molecule-1 (ICAM-1) in human lung carcinoma A549 cells in a similar manner to castanospermine, an inhibitor of endoplasmic reticulum α-glucosidases I and II [66]. […] Taken together, these considerations prompted us to evaluate a series of lupanes with amide function or polyamine chain 11, 12, 16, 18, and 22–26 for α-glucosidase inhibition. Initially, they were screened against α-glucosidase of S. cerevisiae as an accessible and high-throughput model. Confirmatory experiments were performed on isolated rough endoplasmic reticulum vesicles from rat liver, which contain neutral α-glucosidases I and II in a membrane-bound form.
Endoplasmic reticulum was isolated from hepatocytes of decapitated male Sprague-Dawley rats, which were starved overnight and sacrificed the next morning. All experiments were approved by Volgograd regional ethic committee. The whole procedure was performed at 4 °C. In brief, a fresh tissue sample from an animal was washed twice with 10 mL of PBS to remove residual blood. The tissue was placed on a paper towel in order to absorb excess liquid and blood clots, if present. It was cut further into small pieces (1.5–2 cm) and washed once more. […] Homogenate was centrifuged at 1000× g for 10 min at 4 °C. After removal of the floating lipid layer by aspiration, supernatant was separated and centrifuged at 12,000× g for 15 min. at 4 °C. The supernatant fraction, which is the post mitochondrial fraction (PMF), was used for isolation of rough endoplasmic reticulum (RER) enriched microsomes by precipitation with 8 mM CaCl2 added dropwise. The final concentration of CaCl2 was 7 mM. Resulting sample was centrifuged at 8000 g for 10 min. at 4 °C. The supernatant was discarded, and the pellet was suspended in isotonic extraction buffer (0.3 mL of buffer for each g of original tissue). The suspension was homogenized completely to afford RER enriched microsomes. In a 96-well flat transparent plate 25 µL of the isolated RER microsomes were incubated with 50 µL of test compounds in 67 mM PBS (pH 6.8) at 37 °C for 10 min. Then, p-nitrophenyl-α-D-glucopyranoside (Sigma #N1377, St. Louis, MO, USA) was added to 1 mM final concentration and increase in absorbance was recorded for 42 min at 405 nm wavelength with Infinite M200 PRO microplate reader (Tecan, Austria). Concentration of RER microsomes was adjusted to achieve an increase in optical density of ~0.2 in control samples after 30 min. of incubation. Test compounds were prepared as described above for the yeast α-glucosidase assay.

In experiment [2] the test system is 60 human tumor cell lines. Description: cells.
Experiment [3] deals with HT29. The experiment can be described thus: NCI-60 SRB screen: colon cancer HT29. It counts as cell-based. The conditions noted are these: Homo sapiens, HT-29, 48 h; HT29; single dose 10 µM; read-out: Percentage Cell Growth.
Experiment [4] has as its system MDA-MB-231/ATCC. Description: NCI-60 SRB screen: breast cancer MDA-MB-231/ATCC. The note with it: Homo sapiens, 48 h; MDA-MB-231/ATCC; single dose 10 µM; read-out: Percentage Cell Growth. It counts as cell-based.
Experiment [5] relates to HL-60(TB). The experiment can be described thus: NCI-60 SRB screen: leukemia HL-60(TB). Format: cell-based. The note with it: Homo sapiens, 48 h; HL-60(TB); single dose 10 µM; read-out: Percentage Cell Growth.
Experiment [6] deals with NCI-H460. Description: NCI-60 SRB screen: non-small cell lung cancer NCI-H460. It counts as cell-based. The note with it: Homo sapiens, 48 h; NCI-H460; single dose 10 µM; read-out: Percentage Cell Growth.
The test system of experiment [7] is ACHN. Description: NCI-60 SRB screen: renal cancer ACHN. Format: cell-based, human. The note with it: single dose 10 µM.
Experiment [8] deals with UO-31. The experiment can be described thus: NCI-60 SRB screen: renal cancer UO-31. The conditions noted are these: UO-31; single dose 10 µM. It counts as cell-based, human.
In experiment [9] the test system is CAKI-1. Description: NCI-60 SRB screen: renal cancer CAKI-1. Format: cell-based, human. The conditions noted are these: CAKI-1; single dose 10 µM.
Experiment [10] deals with RPMI-8226. Description: NCI-60 SRB screen: leukemia RPMI-8226. It counts as cell-based. The conditions noted are these: Homo sapiens, 48 h; RPMI-8226; single dose 10 µM; read-out: Percentage Cell Growth.
Experiment [11] concerns HOP-92. The experiment can be described thus: NCI-60 SRB screen: non-small cell lung cancer HOP-92. Format: cell-based, human. The conditions noted are these: HOP-92; single dose 10 µM.
Experiment [12] deals with MCF7. The experiment can be described thus: NCI-60 SRB screen: breast cancer MCF7. The note with it: Homo sapiens, 48 h; MCF7; single dose 10 µM; read-out: Percentage Cell Growth. It counts as cell-based.
In experiment [13] the test system is U251. The experiment can be described thus: NCI-60 SRB screen: CNS cancer U251. It counts as cell-based. The conditions noted are these: Homo sapiens, U-251, 48 h; U251; single dose 10 µM; read-out: Percentage Cell Growth.
Experiment [14] concerns SK-MEL-5. The experiment can be described thus: NCI-60 SRB screen: melanoma SK-MEL-5. The note with it: SK-MEL-5; single dose 10 µM. It counts as cell-based, human.
For experiment [15], the system named is SNB-75. Description: NCI-60 SRB screen: CNS cancer SNB-75. Format: cell-based, human. The conditions noted are these: SNB-75; single dose 10 µM.
The subject of experiment [16] is SF-295. The experiment can be described thus: NCI-60 SRB screen: CNS cancer SF-295. Format: cell-based, human. The note with it: SF-295; single dose 10 µM.
Experiment [17] has as its system MOLT-4. Description: NCI-60 SRB screen: leukemia MOLT-4. It counts as cell-based. The note with it: Homo sapiens, 48 h; MOLT-4; single dose 10 µM; read-out: Percentage Cell Growth.
For experiment [18], the system named is CCRF-CEM. Description: NCI-60 SRB screen: leukemia CCRF-CEM. Format: cell-based. The conditions noted are these: Homo sapiens, 48 h, single dose 10 µM, read-out: Percentage Cell Growth.
Experiment [19] has as its system PC-3. Description: NCI-60 SRB screen: prostate cancer PC-3. The conditions noted are these: PC-3; single dose 10 µM. It counts as cell-based, human.
Experiment [20] concerns SW-620. The experiment can be described thus: NCI-60 SRB screen: colon cancer SW-620. Format: cell-based. The note with it: Homo sapiens, 48 h; SW-620; single dose 10 µM; read-out: Percentage Cell Growth.
The test system of experiment [21] is HCT-116. The experiment can be described thus: NCI-60 SRB screen: colon cancer HCT-116. Format: cell-based. The note with it: Homo sapiens, 48 h; HCT-116; single dose 10 µM; read-out: Percentage Cell Growth.
Experiment [22] concerns T-47D. The experiment can be described thus: NCI-60 SRB screen: breast cancer T-47D. It counts as cell-based, human. The conditions noted are these: T-47D; single dose 10 µM.
Experiment [23] concerns K-562. Description: NCI-60 SRB screen: leukemia K-562. Format: cell-based, human. The note with it: K-562; single dose 10 µM.
The test system of experiment [24] is SR. The experiment can be described thus: NCI-60 SRB screen: leukemia SR. Format: cell-based. The note with it: Homo sapiens, 48 h, single dose 10 µM, read-out: Percentage Cell Growth.
Experiment [25] relates to COLO 205. Description: NCI-60 SRB screen: colon cancer COLO 205. It counts as cell-based, human. The note with it: COLO 205; single dose 10 µM.
Experiment [26] relates to IGROV1. Description: NCI-60 SRB screen: ovarian cancer IGROV1. Format: cell-based, human. The note with it: IGROV1; single dose 10 µM.
The subject of experiment [27] is OVCAR-8. The experiment can be described thus: NCI-60 SRB screen: ovarian cancer OVCAR-8. Format: cell-based, human. The note with it: OVCAR-8; single dose 10 µM.
In experiment [28] the test system is LOX IMVI. Description: NCI-60 SRB screen: melanoma LOX IMVI. The note with it: single dose 10 µM. Format: cell-based, human.
Experiment [29] deals with KM12. The experiment can be described thus: NCI-60 SRB screen: colon cancer KM12. The conditions noted are these: KM12; single dose 10 µM. Format: cell-based, human.

Data on ten compounds can be found in publication PMC7587962, “Evaluation of Cytotoxicity and α-Glucosidase Inhibitory Activity of Amide and Polyamino-Derivatives of Lupane Triterpenoids” (Molecules, 2020).

SMILES strings stand for the structures. Like-named read-outs stand apart in the source and are kept apart here.

Turning to `C[C@H]1O[C@H](O[C@H]2[C@H](O)[C@@H](O)[C@@H](O[C@H]3[C@H](O)[C@@H](O)C(O)O[C@@H]3CO)O[C@@H]2CO)[C@H](O)[C@@H](O)[C@@H]1N[C@H]1C=C(CO)[C@@H](O)[C@H](O)[C@H]1O` (some centres unmarked) [Acarbose, reference compound], the entries for the “Rat Liver ER Neutral α-Glucosidase Inhibition, m ± SD” value in experiment [1] (10 μM), in [1] (100 μM) and in [1] (1 mM) were 5.68 ± 4.68%, 24.09 ± 6.48% and 74.55 ± 3.76%, respectively.
On to `C=C(C)[C@@H]1CC[C@]2(C(=O)NCCNCCN)CC[C@]3(C)[C@H](CC[C@@H]4[C@@]5(C)CC[C@H](O)C(C)(C)[C@@H]5CC[C@]43C)[C@@H]12` [Compound 7], for which the activity at 10 µM in [2] (read-out: Mean Growth, %) is 99.2%; in experiment [2] (read-out: Range of Growth, %), 53.8 to 147%.
With `C=C(C)[C@@H]1CC[C@]2(C(=O)NCCCCCCN(CCCN)CCCN)CC[C@]3(C)[C@H](CC[C@@H]4[C@@]5(C)CC[C@H](O)C(C)(C)[C@@H]5CC[C@]43C)[C@@H]12` [Compound 8], the activity at 10 µM in experiment [2] (read-out: Mean Growth, %) is 80.5%; in experiment [2] (read-out: Range of Growth, %), 20.4 to 135%; in experiment [3], 24.3%; in experiment [4], 20.4%.
Consider `C=C(C)[C@@H]1CC[C@]2(C(N)=O)CC[C@]3(C)[C@H](CC[C@@H]4[C@@]5(C)CCC(=O)C(C)(C)[C@@H]5CC[C@]43C)[C@@H]12` [Compound 9], for which the activity at 10 µM in experiment [2] (read-out: Mean Growth, %) is 72%; in [2] (read-out: Range of Growth, %), 25.9 to 115%; in [5], 25.9%.
Consider `C=C(C)[C@@H]1CC[C@]2(C(=O)NCCCCCCN(CCCN)CCCN)CC[C@]3(C)[C@H](CC[C@@H]4[C@@]5(C)CCC(=O)C(C)(C)[C@@H]5CC[C@]43C)[C@@H]12` [Compound 13], for which the activity at 10 µM in experiment [2] (read-out: Mean Growth, %) was 105%; in experiment [2] (read-out: Range of Growth, %), 85.8 to 118%.
For `C=C(C)[C@@H]1CC[C@]2(C(=O)NCCN(CCNC(=O)OC(C)(C)C)C(=O)OC(C)(C)C)CC[C@]3(C)[C@H](CC[C@@H]4[C@@]5(C)CCC(=O)C(C)(C)[C@@H]5CC[C@]43C)[C@@H]12` [Compound 14], the activity at 10 µM in experiment [6] was determined as 20.6%; in experiment [10], 22.2%; in experiment [2] (read-out: Mean Growth, %), 36.6%; in experiment [12], 22.2%; in experiment [13], 27.9%; in experiment [17], 11.7%. Besides, the activity at 10 µM in experiment [3] was 23.7%; in experiment [18], 14.9%; in [20], 28.8%; in [21], 17.5%; in [5], -14.3%; in experiment [4], -33.8%. For the same compound, the “Percentage Cell Growth” value was 23.51% in experiment [7]; 17.41% in experiment [8]; 18.57% in [9]; 8.07% in [11]; −8.44% in experiment [14]; 23.86% in [15]. Besides, the “Percentage Cell Growth” value stood at 31.97% in experiment [16], 19.12% in [19] and 28.02% in experiment [22].
Take `C=C(C)[C@@H]1CC[C@]2(C(=O)NN(CCN(CCNC(=O)OC(C)(C)C)C(=O)OC(C)(C)C)C(=O)OC(C)(C)C)CC[C@]3(C)[C@H](CC[C@@H]4[C@@]5(C)CCC(=O)C(C)(C)[C@@H]5CC[C@]43C)[C@@H]12` [Compound 15]: the activity at 10 µM in experiment [2] (read-out: Mean Growth, %) is 90.1%; in experiment [2] (read-out: Range of Growth, %), 56.8 to 114%.
The like results for `C=C(C)[C@@H]1CC[C@]2(C(=O)NCCCC[C@@H](N)C(=O)OC)CC[C@]3(C)[C@H](CC[C@@H]4[C@@]5(C)CCC(=O)C(C)(C)[C@@H]5CC[C@]43C)[C@@H]12` [Compound 17] were, in that order, 98.7% and 79.2 to 111%.
As to `C=C(C)[C@@H]1CC[C@]2(C(=O)NCCCCCCN(CCCN)CCCN)CC[C@]3(C)[C@H](CC[C@@H]4[C@@]5(C)CC[C@H](OCCCN)C(C)(C)[C@@H]5CC[C@]43C)[C@@H]12` [Compound 19], the “Percentage Cell Growth” value is 1.52% in [23]; 18.88% in experiment [25]; 27.33% in experiment [26]; −28.27% in experiment [27]; 5.71% in [28]; 31.48% in experiment [29]. The activity at 10 µM in experiment [6] was -16.2%; in [10], 29.3%; in experiment [24], 18.4%; in [2] (read-out: Mean Growth, %), 63%; in experiment [2] (read-out: Range of Growth, %), -39.5 to 141%; in experiment [12], 14.5%. Further, the activity at 10 µM was -39.5% in [13]; 10.1% in experiment [17]; 4.21% in [3]; 11.8% in [18]; 7.33% in [20]; 12.6% in experiment [21].
In the case of `C=C(C)[C@@H]1CC[C@]2(C(=O)N3CCNCC3)CC[C@]3(C)[C@H](CC[C@@H]4[C@@]5(C)CCC(=O)C(C)(C)[C@@H]5CC[C@]43C)[C@@H]12` [Compound 20], the activity at 10 µM in [2] (read-out: Mean Growth, %) was 101%; in experiment [2] (read-out: Range of Growth, %), 87.8 to 111%.
